Experimental data taken from patent publication US20250059139A1, “COMPOUNDS FOR TREATMENT OF CANCER” (THE JOHNS HOPKINS UNIVERSITY, priority 2021, published 2025).

Experiments:
[1] = tested on: CWR22-RH PDXs; assay: RNA sequencing of in vivo growing CWR22-RH PDXs in castrate hosts; design: species or system human; details: TasQ 10 mg/kg/d orally vs. vehicle control
Method: RNA Sequencing Analysis of In vivo Growing Xenografts. This was performed as described previously (Brennen 2021; Zhu 2020) with read counts normalized per kilo base-pair gene length and per million reads library size (RPKM).
RNAseq analysis was performed on CWR22-RH PDX tissue growing in the compromised hypoxic TME of castrated hosts with or without daily oral TasQ (10 mg/kg/d). Such dosing produces optimal CWR22-RH growth inhibition (FIG. 1) consistent with downregulation of the expression of proliferation-associated target genes in addition to the AR and its target genes (Table 1A). In addition, such daily TasQ treatment lowers HIF-1α protein in tumors by >50% (Olsson 2010) suppressing HIF1-dependent cell survival target genes (Table 1B). […] As predicted at this drug level, elevated expression of AHR and a series of its target genes is observed (Table 1C).

[2] = tested on: HDAC4 KD LNCaP cells; assay: In vitro growth of HDAC4 KD LNCaP cells; assay type: cell-based, human
Method: Generation of stable shRNA Knock Down (KD) Variants. Stable shRNA HDAC4, and HIF-1α knockdown (KD) were as described previously (id.). Stable shRNA AHR KD as described previously (id.) using […] (SEQ ID NO: 1) as the targeting sequence.
Similarly, under such optimal conditions, knocking down HDAC4 expression by 50% with shRNA only decreases the growth of LNCaP cells by <25%, which is equivalent to the inhibition by TasQ at 10 μM (FIG. 22). […] In contrast to normoxic in vitro conditions, cancers outgrow their blood supply in vivo, producing a TME that is hypoxic, nutrient-limited, and acidic (low pH). For example, when prostate cancer xenografts growing subcutaneously reach a size of ˜0.2-0.3 cc, the TME is already hypoxic with a pO2 of 3.6+/−1.5 mmHg compared to 37.5+/−8.6 mmHg in normal tissue (Dalrymple et al. Prostate 72, 638-648 (2012)). When LNCaP cells are switched from 21% O2 (i.e., 160 mmHg) to a hypoxic condition of 1% O2 (i.e., 7.6 mmHg), their growth decreases by 50% (FIG. 22). This hypoxia-induced growth inhibition is enhanced by either knocking down HDAC4 or by treatment with TasQ (FIG. 22).

[3] = tested on: HIF-1α protein in tumors; details: daily oral 10 mg/kg/d; cited from earlier work

COc1cccc2c1c(O)c(C(=O)N(C)c1ccc(C(F)(F)F)cc1)c(=O)n2C [TasQ, Tasquinimod]
AGR2, AHR Target Genes (Fold Increases by TasQ) [1]: 5.5 fold | AHR, AHR Target Genes (Fold Increases by TasQ) [1]: 3.0 fold | ALDOC, HIF-1α Target Genes (Fold Decrease by TasQ) [1]: −1.4 fold | AR, AR Target Genes (Fold Decrease by TasQ) [1]: −2.0 fold | BHLHE41, MEF-2 Target Genes (Fold Increase by TasQ) [1]: 2.9 fold | BNIP3, HIF-1α Target Genes (Fold Decrease by TasQ) [1]: −1.9 fold | CA12, MEF-2 Target Genes (Fold Increase by TasQ) [1]: 2.7 fold | CAPN2, MEF-2 Target Genes (Fold Increase by TasQ) [1]: 1.6 fold | CDC6, Proliferation Target Genes (Fold Decrease by TasQ) [1]: −1.5 fold | CDT1, Proliferation Target Genes (Fold Decrease by TasQ) [1]: −2.2 fold | CEACAM1, MEF-2 Target Genes (Fold Increase by TasQ) [1]: 1.8 fold | CYP1B1, AHR Target Genes (Fold Increases by TasQ) [1]: 10.0 fold | DTYMK, Proliferation Target Genes (Fold Decrease by TasQ) [1]: −1.6 fold | E2F1, Proliferation Target Genes (Fold Decrease by TasQ) [1]: −2.0 fold | EDN1, MEF-2 Target Genes (Fold Increase by TasQ) [1]: 15.0 fold | GDF15, AHR Target Genes (Fold Increases by TasQ) [1]: 2.3 fold | HILPDA, HIF-1α Target Genes (Fold Decrease by TasQ) [1]: −1.7 fold | IGF1, HIF-1α Target Genes (Fold Decrease by TasQ) [1]: −11.0 fold | IGFBP2, HIF-1α Target Genes (Fold Decrease by TasQ) [1]: −1.8 fold | IGFBP5, HIF-1α Target Genes (Fold Decrease by TasQ) [1]: −18.0 fold | KLKP1, AR Target Genes (Fold Decrease by TasQ) [1]: −2.3 fold | LDHA, HIF-1α Target Genes (Fold Decrease by TasQ) [1]: −1.5 fold | LOX, HIF-1α Target Genes (Fold Decrease by TasQ) [1]: −4.0 fold | MCM2, Proliferation Target Genes (Fold Decrease by TasQ) [1]: −1.9 fold | MCM3, Proliferation Target Genes (Fold Decrease by TasQ) [1]: −1.6 fold | MCM5, Proliferation Target Genes (Fold Decrease by TasQ) [1]: −2.0 fold | MKI67, Proliferation Target Genes (Fold Decrease by TasQ) [1]: −1.7 fold | NKX3.1, AR Target Genes (Fold Decrease by TasQ) [1]: −2.3 fold | NQO1, AHR Target Genes (Fold Increases by TasQ) [1]: 2.9 fold | NR4A1, MEF-2 Target Genes (Fold Increase by TasQ) [1]: 1.4 fold | NR4A2, MEF-2 Target Genes (Fold Increase by TasQ) [1]: 1.8 fold | P4HA1, HIF-1α Target Genes (Fold Decrease by TasQ) [1]: −1.8 fold | PDK1, HIF-1α Target Genes (Fold Decrease by TasQ) [1]: −1.7 fold | PTN, HIF-1α Target Genes (Fold Decrease by TasQ) [1]: −6.1 fold | S100P, MEF-2 Target Genes (Fold Increase by TasQ) [1]: 5.7 fold | SLC45A3, AR Target Genes (Fold Decrease by TasQ) [1]: −3.7 fold | THB5, MEF-2 Target Genes (Fold Increase by TasQ) [1]: 8.0 fold | TIPARP, AHR Target Genes (Fold Increases by TasQ) [1]: 3.4 fold | TMPRSS2, AR Target Genes (Fold Decrease by TasQ) [1]: −1.9 fold | TNC, HIF-1α Target Genes (Fold Decrease by TasQ) [1]: −2.5 fold | TTR, HIF-1α Target Genes (Fold Decrease by TasQ) [1]: −3.8 fold | VEGFB, HIF-1α Target Genes (Fold Decrease by TasQ) [1]: −1.5 fold | effect on HDAC4 KD cells exposed to hypoxia ([2]; 10 μM, 1% O2): the cells die | inhibition at 10 µM ([2]; Homo sapiens, LNCaP, normoxic): > 50% | lowering of HIF-1α protein in tumors [3]: > 50%
